Columns and labels:
[1] = system: BEAS-2B cell line, in which PINK1 was knocked down; assay: Mitophagy activity in PINK1 knockdown (shPINK1) BEAS-2B cells (FACS); type: cell-based, human
From the text: In this example, it was confirmed whether the mitophagy activation function of the isoquinoline derivative according to the present invention is dependent on the PINK1-Parkin pathway. […]
In the following example, it was confirmed whether the novel isoquinoline derivative according to the present invention has a therapeutic effect of preventing or improving Parkinson's disease. Most of all, it was confirmed whether the treatment with the isoquinoline derivative improves mitochondrial dysfunction of a Parkinson's disease cell model. To this end, first, the induction of mitophagy by CD1-012 was verified. […] In addition, to analyze whether the mitophagy-promoting activity of CD1-012 is dependent on PINK1, PINK1 expression was inhibited (using shPNIK1) in BEAS-2B cells, which is a human normal lung cell line expressing a mitochondrial fluorescent protein, and mitophagy activity was analyzed by flow cytometry (FACS).

[2] = system: mitochondria from the substantia nigra of the mice; assay: Mitochondrial function in substantia nigra of MPTP mouse model (TMRM, ATP production); type: in vivo
Experimental: Subsequently, it was confirmed that the compound CD1-012 of the present invention has an effect of improving mitochondrial dysfunction using an animal model of Parkinson's disease. To this end, after separating mitochondria from the substantia nigra of the mice undergoing the behavioral experiment in Example 4, the membrane potential of mitochondria was analyzed through TMRM (100 nM, 37° C., 30 min) fluorescent staining, and the mitochondrial function was analyzed by measuring ATP production (analyzed for 5 mice per group).

[3] = system: mouse model of Parkinson's disease established by injecting MPTP; assay: Motor performance (pole test, Rota-rod test) in MPTP mouse model of Parkinson's disease; type: in vivo
Experimental: In this example, the effect of the compound of the present invention (CD1-012) on treating Parkinson's disease was confirmed using a mouse model of Parkinson's disease. To this end, a mouse model of Parkinson's disease established by injecting the neurotoxin, 1-methyl-4-phenyl-1,2,3,6-tetrahydropyridine (MPTP), was used. After nasal administration of CD1-012 at a concentration of 1 mg/kg daily for 2 weeks to the mouse model, motor performance was analyzed using the pole test and Rota-rod test (FIG. 11A).

[4] = system: dopaminergic neurons in the substantia nigra; assay: Number of dopaminergic neurons in substantia nigra of MPTP mouse model (TH immunochemical staining); type: in vivo; conditions: MPTP mice administered CD1-012, TH staining (FIGS. 13A and 13B)
Experimental: Subsequently, it was confirmed whether CD1-012 administration can inhibit dopaminergic neuron death in the substantia nigra of the animal model of Parkinson's disease. To this end, the number of dopaminergic neurons was measured by performing TH immunochemical staining on the substantia nigra of the mice undergoing the behavioral experiment in Example 4.

**Q.** What does the source list for `Oc1cc2c(cc1O)-c1cc3ccc(O)c(O)c3c[n+]1CC2` [CD1-012, 2,3,9,10-tetrahydroxy-5,6-dihydroisoquinolino[3,2-a]isoquinolin-7-ium bromide]?
**A.** mitophagy-promoting activity compared with CCCP (10 μM) ([1]; 20 μM, BEAS-2B, FACS (FIG. 8B)): mitophagy-promoting activity at a level similar to that of CCCP; mitophagy-promoting activity when PINK1 gene expression was inhibited ([1]; 20 μM, shPINK1 BEAS-2B, FACS (FIG. 8B)): mitophagy-promoting activity was not inhibited; mitophagy activation in PINK1 knockdown cell line (shPINK1) compared to control cell line (shNT) ([1]; CCCP 10 μM, CD1-012 15 μM, 18 hours (FIG. 7)): did not show a significant difference; ATP synthesis capacity of mitochondria in substantia nigra ([2]; MPTP mice coadministered CD1-012 (FIG. 12B)): restoration; membrane potential of mitochondria in substantia nigra ([2]; MPTP mice coadministered CD1-012, TMRM (FIG. 12A)): restoration; pole test, motor performance (time to reach the ground) ([3]; MPTP mice, nasal 1 mg/kg daily for 2 weeks (FIG. 11B)): recovered to a level equivalent to that of the normal control; Rota-rod test, time spent on the cylinder ([3]; MPTP mice, nasal 1 mg/kg daily for 2 weeks (FIG. 11C)): markedly recovered; motor performance of normal mice administered CD1-012 alone compared to untreated normal control (toxicity) ([3]; normal mice, CD1-012 alone): no significant difference in motor performance; number of dopaminergic neurons in substantia nigra [4]: restored to a level similar to the control

From patent publication US20260130894A1, “COMPOSITION COMPRISING ISOQUINOLINE DERIVATIVE AS ACTIVE INGREDIENT FOR PREVENTION OR TREATMENT OF PARKINSON'S DISEASE” (ALTMEDICAL CO., LTD., priority 2022, published 2026)
